Experimental data reported in patent publication EP4722219A1 (Gan & Lee Pharmaceuticals Co., Ltd., priority 2023, dated 2024).

Tests used:
AR protein = biological target: T1, AR protein (Homo sapiens, UniProt P10275, T878A); assay: AR protein degradation in LNCaP cells (Western blot); type: cell-based; details: 8 hours; for Degradation of AR protein in LNCaP cells, 10 nM (%) / percent AR protein degradation at a fixed concentration at 0.01 µM: 10 nM; for Degradation of AR protein in LNCaP cells, 100 nM (%) / percent AR protein degradation at a fixed concentration at 0.1 µM: 100 nM
T1 construct: host or cells: LNCaP FGC
T1 sequence (P10275 1-920 T878A): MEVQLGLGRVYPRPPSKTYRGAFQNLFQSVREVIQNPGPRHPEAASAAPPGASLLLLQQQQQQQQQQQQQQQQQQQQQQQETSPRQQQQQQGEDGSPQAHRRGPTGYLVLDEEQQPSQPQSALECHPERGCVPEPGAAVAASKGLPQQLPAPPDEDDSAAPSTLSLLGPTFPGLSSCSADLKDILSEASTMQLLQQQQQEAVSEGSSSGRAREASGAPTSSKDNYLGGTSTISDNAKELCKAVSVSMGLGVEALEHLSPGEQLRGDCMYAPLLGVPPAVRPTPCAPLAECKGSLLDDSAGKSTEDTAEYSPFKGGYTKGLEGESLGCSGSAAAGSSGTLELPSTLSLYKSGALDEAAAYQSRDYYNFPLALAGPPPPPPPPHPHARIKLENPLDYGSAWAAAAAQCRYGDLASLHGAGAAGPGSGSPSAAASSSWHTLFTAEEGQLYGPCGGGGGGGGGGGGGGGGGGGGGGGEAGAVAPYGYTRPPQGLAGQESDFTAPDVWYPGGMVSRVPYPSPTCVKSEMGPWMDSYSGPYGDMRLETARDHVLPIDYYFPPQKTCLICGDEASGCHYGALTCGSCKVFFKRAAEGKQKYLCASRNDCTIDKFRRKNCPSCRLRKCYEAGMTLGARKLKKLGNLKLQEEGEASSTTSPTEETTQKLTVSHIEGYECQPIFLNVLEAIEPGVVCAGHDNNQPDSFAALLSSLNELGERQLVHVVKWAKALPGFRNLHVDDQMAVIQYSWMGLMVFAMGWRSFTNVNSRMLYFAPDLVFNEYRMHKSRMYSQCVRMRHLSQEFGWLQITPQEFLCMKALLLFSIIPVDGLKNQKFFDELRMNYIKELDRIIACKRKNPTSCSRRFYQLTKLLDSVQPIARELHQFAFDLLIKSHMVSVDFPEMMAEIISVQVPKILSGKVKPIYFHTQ
Method in brief: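 LNCaP cells exposed to compound or solvent control for 8 h, lysed in RIPA, protein normalized by BCA. AR detected by SDS-PAGE/Western blot with infrared imaging; band grayscale normalized to GAPDH to calculate AR degradation rate.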

LNCaP cells = assay: Inhibition of LNCaP cell proliferation (WST-8); type: cell-based; details: Homo sapiens, LNCaP FGC cells, 96 hours
Method in brief: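 Cells were seeded and cultured overnight at 37 °C, 5% CO2, then exposed for 96 h to compound at 9 concentrations, 5-fold serial dilution from 10 µM final. Viability was read by WST-8 absorbance at 450 nm.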

SMILES	Degradation of AR protein in LNCaP cells, 10 nM (%) (AR protein)	Degradation of AR protein in LNCaP cells, 100 nM (%) (AR protein)	IC50 (LNCaP cells)	percent AR protein degradation at a fixed concentration at 0.01 µM (AR protein)	percent AR protein degradation at a fixed concentration at 0.1 µM (AR protein)
CC1(C)[C@H](NC(=O)c2ccc(N3CCC(CN4CCC5(CCc6cc(C(=O)N[C@H]7CCC(=O)NC7=O)c(F)cc6O5)CC4)CC3)nc2)C(C)(C)[C@H]1Oc1ccc(C#N)c(C(F)(F)F)c1 [A-P-45, 1'-((1-(5-(((1R,3R)-3-(4-cyano-3-(trifluoromethyl)phenoxy)-2,2,4,4-tetramethylcyclobutyl)carbamoyl)pyridin-2-yl)piperidin-4-yl)methyl)-N-((S)-2,6-dioxopiperidin-3-yl)-7-fluorospiro[chroman-2,4'-piperidin]-6-carboxamide]	52%	85%	0.57 µM		
COc1cc(O[C@H]2C(C)(C)[C@H](NC(=O)c3ccc(N4CCC(F)(CN5CCC6(CC5)COc5c6ccc(C(=O)N[C@H]6CCC(=O)NC6=O)c5F)CC4)cc3)C2(C)C)ccc1C#N [A-P-84]	-6%	33%	0.11 µM		
N#Cc1ccc(O[C@H]2CC[C@H](NC(=O)c3ccc(N4CCC(N5CC6(CCC7(CC6)COc6c7ccc7c6CN(C6CCC(=O)NC6=O)C7=O)C5)CC4)nn3)CC2)cc1Cl (relative stereo) [A-P-1, N-((1r,4r)-4-(3-chloro-4-cyanophenoxy)cyclohexyl)-6-(4-(7'-(2,6-dioxopiperidin-3-yl)-6'-oxo-7',8'-dihydro-2'-H,6'-H-dihydro[azetidine-3,1'-cyclohexane-4',3"-furo[2,3-e]isoindol]-1-yl)piperidin-1-yl)pyridazine-3-carboxamide]	66%	48%	> 10 µM		
COc1cc(O[C@H]2C(C)(C)[C@H](NC(=O)c3ccc(N4CCC(C)(CN5CCC6(CCc7cc(C(=O)N[C@H]8CCC(=O)NC8=O)c(F)cc7O6)CC5)CC4)nc3)C2(C)C)ccc1C#N [A-P-49, 1'-((1-(5-(((1R,3R)-3-(4-cyano-3-methoxyphenoxy)-2,2,4,4-tetramethylcyclobutyl)carbamoyl)pyridin-2-yl)-4-methylpiperidin-4-yl)methyl)-N-((S)-2,6-dioxopiperidin-3-yl)-7-fluorospiro[chroman-2,4'-piperidin]-6-carboxamide]	48%	62%	0.6 µM		
COc1cc(O[C@H]2C(C)(C)[C@H](NC(=O)c3ccc(N4CCC(CN5CCC6(CCc7cc(C(=O)N[C@H]8CCC(=O)NC8=O)c(F)cc7O6)CC5)CC4)nn3)C2(C)C)ccc1C#N [A-P-34, 1'-((1-(6-(((1R,3R)-3-(4-cyano-3-methoxyphenoxy)-2,2,4,4-tetramethylcyclobutyl)carbamoyl)pyridazin-3-yl)piperidin-4-yl)methyl)-N-((S)-2,6-dioxopiperidin-3-yl)-7-fluorospiro[chroman-2,4'-piperidin]-6-carboxamide]	72%	85%	0.87 µM		
COc1cc(O[C@H]2C(C)(C)[C@H](NC(=O)c3ccc(N4CCC(CN5CCN6c7ccc(N[C@H]8CCC(=O)NC8=O)cc7OC[C@@H]6C5)CC4)cc3)C2(C)C)ccc1C#N [A-P-100]	1%	48%	0.38 µM		
COc1cc(O[C@H]2C(C)(C)[C@H](NC(=O)c3ccc(N4CCC(C)(CN5CCC6(CC5)COc5cc7c(cc56)n(C)c(=O)n7C5CCC(=O)NC5=O)CC4)cc3)C2(C)C)ccc1C#N (relative stereo) [A-P-16]	49%	29%	> 90 µM		
C[C@H]1CC2(CCN(c3ccc(C(=O)N4CCC(CN5CCN6c7ccc(C(=O)N[C@H]8CCC(=O)NC8=O)cc7OC[C@H]6C5)CC4)cc3)CC2)CN1c1ccc(C#N)c(Cl)c1 [A-P-68]	51%	84%	0.97 µM		
COc1cc(O[C@H]2C(C)(C)[C@H](NC(=O)c3ccc(N4CCC(C)(CN5CC6(CCC7(CC6)COc6c7ccc7c6CN(C6CCC(=O)NC6=O)C7=O)C5)CC4)cc3)C2(C)C)ccc1C#N (relative stereo) [A-P-4]	74%	83%	3.52 µM		
N#Cc1ccc(O[C@H]2CC[C@H](NC(=O)c3ccc(N4CCC(N5CCC6(CC5)CCC5(CC6)COc6c5ccc5c6CN(C6CCC(=O)NC6=O)C5=O)CC4)nn3)CC2)cc1Cl (relative stereo) [A-P-7, N-((1r,4r)-4-(3-chloro-4-cyanophenoxy)cyclohexy 1)-6-(4-(7-(2,6-dioxopiperidin-3-yl)-6-oxo-7,8-dihydro-2H,6H-dipyridyl[2,3-e]isoindole-3,1'-cyclohexane-4',4'"-piperidin]-1"-yl)pyridazine-3-carboxamide]	85%	75%	1.88 µM		
COc1cc(O[C@H]2C(C)(C)[C@H](NC(=O)c3ccc(N4CCC(C)(CN5CCC6(CCc7cc(C(=O)N[C@H]8CCC(=O)NC8=O)c(F)cc7O6)CC5)CC4)cn3)C2(C)C)ccc1C#N [A-P-43, 1'-((1-(6-(((1r,3r)-3-(4-cyano-3-methoxyphenoxy)-2,2,4,4-tetramethylcyclobutyl)carbamoyl)pyridin-3-yl)-4-methylpiperidin-4-yl)methyl)-N-((S)-2,6-dioxopiperidin-3-yl)-7-fluorospiro[chroman-2,4'-piperidin]-6-carboxamide]	8%	35%	0.36 µM		
COc1cc(O[C@H]2C(C)(C)[C@H](NC(=O)c3ccc(N4CCC(C)(CN5CCC6(CCc7cc(F)c(C(=O)N[C@H]8CCC(=O)NC8=O)cc7O6)CC5)CC4)cc3)C2(C)C)ccc1C#N [A-P-38, 1-(1-(4-((1R,3R)-3-((4-cyano-3-methoxyphenoxy)-2,2,4,4-tetramethylcyclobutyl)carbamoyl)phenyl)-4-methylpiperidin-4-methyl)-N-((S)-2,6-dioxopiperidin-3-yl)-6-fluorospiro[chroman-2,4'-piperidin]-7-carboxamide]	-2%	0%	1.49 µM		
COc1cc(O[C@H]2C(C)(C)[C@H](NC(=O)c3ccc(N4CCC(N5CC6(CCC7(CC6)COc6c7ccc7c6CN(C6CCC(=O)NC6=O)C7=O)C5)CC4)cc3)C2(C)C)ccc1C#N (stereo partly drawn) [A-P-2]			2.89 µM	-42%	43%
COc1cc(O[C@H]2C(C)(C)[C@H](NC(=O)c3ccc(N4CCC(CN5CCC6(CCc7cc(C(=O)N[C@H]8CCC(=O)NC8=O)c(F)cc7O6)CC5)CC4)nc3)C2(C)C)ccc1C#N [A-P-33, 1'-((1-(5-(((1R,3R)-3-(4-cyano-3-methoxyphenoxy)-2,2,4,4-tetramethylcyclobutyl)carbamoyl)pyridin-2-yl)piperidin-4-yl)methyl)-N-((S)-2,6-dioxopiperidin-3-yl)-7-fluorospiro[chroman-2,4'-piperidin]-6-carboxamide]	84%	85%	1.58 µM		
COc1cc(O[C@H]2CC[C@H](NC(=O)c3ccc(N4CCC(CN5CCC6(CC5)COc5c6ccc6c5n(C)c(=O)n6C5CCC(=O)NC5=O)CC4)nn3)CC2)ccc1C#N (stereo partly drawn) [A-P-22]			47.6 µM	48%	25%
COc1cc(O[C@H]2C(C)(C)[C@H](NC(=O)c3ccc(N4CCC(C)(CN5CCC6(CCc7cc(C(=O)N[C@H]8CCC(=O)NC8=O)c(F)cc7O6)CC5)CC4)cc3)C2(C)C)ccc1C#N [A-P-31, 1'-((1-((4-((1r,3r)-3-(4-cyano-3-methoxyphenoxy)-2,2,4,4-tetramethylcyclobutyl)carbamoyl)phenyl)-4-methylpiperidin-4-yl)methyl)-N-((S)-2,6-dioxopiperidin-3-yl)-7-fluorospiro[2,4'-piperidin]-6-carboxamide]			0.58 µM	47%	71%
